Key:
T47D cells = experiment: Cellular growth inhibition assay for T47D cells, CellTiter-Glo; type: cell-based, human; conditions: 72 hours treatment, CellTiter-Glo 2.0 cell viability
Outline: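 Cells are plated at 3000/well and allowed 24 h before treatment. Test compound in medium containing 0.5% DMSO is then added, with DMSO-only wells as negative control, and plates are incubated 72 h at 37 °C. ATP luminescence (CellTiter-Glo 2.0) is then fitted to four parameters to derive GI50.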

[1] = system: T-Rex 293 cell line SC3 cells having increased expression of androgen receptor protein due to exposure to doxycycline; experiment: Cellular growth inhibition, T-Rex 293 SC3 cells with doxycycline (androgen receptor induced), CellTiter-Glo; type: cell-based; conditions: T-Rex 293 SC3 cells with 10 ng/mL doxycycline (increased androgen receptor expression)
Outline: (§1)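 Luminescence read-out (CellTiter-Glo 2.0) after 72 h compound exposure; GI50 by four-parameter nonlinear regression, baseline set at zero luminescence. SC3 cells, a doxycycline-inducible wild-type AR clone of T-Rex 293, were cultured ±10 ng/mL doxycycline in charcoal-dextran FBS medium.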

[2] = system: T-Rex 293 cell line SC3 cells lacking increased expression of androgen receptor protein; experiment: Cellular growth inhibition, T-Rex 293 SC3 cells without doxycycline, CellTiter-Glo; type: cell-based; conditions: T-Rex 293 SC3 cells not exposed to doxycycline, CellTiter-Glo 2.0
Outline: as §1

VCaP cells = experiment: Cellular growth inhibition assay for VCaP cells, CellTiter-Glo; type: cell-based, human; conditions: 72 hours treatment, CellTiter-Glo 2.0
Outline: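 GI50 values come from four-parameter curve fits of luminescence data normalized to a zero baseline. Compound, in medium with 0.5% DMSO, was added one day after plating and left for 72 h before CellTiter-Glo 2.0 addition.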

SMILES | GI50 (T47D cells; Homo sapiens, T47D, 72 h) | GI50 ([1]; 72 h) | GI50 ([2]; 72 h) | GI50 (VCaP cells; Homo sapiens, VCaP, 72 h) | GI50 (T47D cells) | GI50 ([1]; 72 hours) | GI50 ([2]; 72 hours) | GI50 (VCaP cells)
Cc1sc2c(c1C)C(c1ccc(OC[C@H]3C[C@]4(CCCN(c5ncc(C(=O)N[C@H]6C(C)(C)[C@H](Oc7ccc(C#N)c(Cl)c7)C6(C)C)cn5)C4)C3)cc1)=N[C@@H](C)c1nnc(C)n1-2 [Compound I-350] | > 3000 nM | < 500 nM | > 3000 nM | < 500 nM |  |  |  | 
Cc1sc2c(c1C)C(c1ccc(OC[C@H]3C[C@@]4(CCCN(c5ncc(C(=O)N[C@H]6C(C)(C)[C@H](Oc7ccc(C#N)c(Cl)c7)C6(C)C)cn5)C4)C3)cc1)=N[C@@H](C)c1nnc(C)n1-2 [Compound I-351] | > 3000 nM | < 500 nM | > 3000 nM | < 500 nM |  |  |  | 
Cc1sc2c(c1C)C(c1ccc(OC[C@@H]3CCCN(c4ncc(C(=O)N[C@H]5C(C)(C)[C@H](Oc6ccc(C#N)c(Cl)c6)C5(C)C)cn4)C3)cc1)=N[C@@H](C)c1nnc(C)n1-2 [Compound I-352] | > 3000 nM | < 500 nM | > 3000 nM | < 500 nM |  |  |  | 
Cc1sc2c(c1C)C(c1ccc(CCC[C@@H]3CCCN(c4ncc(C(=O)N[C@H]5C(C)(C)[C@H](Oc6ccc(C#N)c(Cl)c6)C5(C)C)cn4)C3)cc1)=N[C@@H](C)c1nnc(C)n1-2 [Compound I-353] | > 3000 nM | < 500 nM | > 3000 nM | > 3000 nM |  |  |  | 
Cc1sc2c(c1C)C(c1ccc(CCO[C@H]3CCCN(c4ncc(C(=O)N[C@H]5C(C)(C)[C@H](Oc6ccc(C#N)c(Cl)c6)C5(C)C)cn4)C3)cc1)=N[C@@H](C)c1nnc(C)n1-2 [Compound I-354] | 1500 to 3000 nM | < 500 nM | > 3000 nM | < 500 nM |  |  |  | 
Cc1sc2c(c1C)C(c1ccc(N(C)CC(=O)N3CCC(c4ncc(C(=O)N[C@H]5C(C)(C)[C@H](Oc6ccc(C#N)c(Cl)c6)C5(C)C)cn4)CC3)cc1)=N[C@@H](Cc1ncco1)c1nnc(C)n1-2 [Compound I-355] | > 3000 nM | > 3000 nM | > 3000 nM | > 3000 nM |  |  |  | 
Cc1sc2c(c1C)C(c1ccc(N(C)CC(=O)N3CCC(c4ncc(C(=O)N[C@H]5C(C)(C)[C@H](Oc6ccc(C#N)c(Cl)c6)C5(C)C)cn4)CC3)cc1)=N[C@H](Cc1ncco1)c1nnc(C)n1-2 [Compound I-356] | 500 to 1500 nM | < 500 nM | > 3000 nM | < 500 nM |  |  |  | 
Cc1sc2c(c1C)C(c1ccc(C(=O)N3CCN(CCc4ncc(C(=O)N[C@H]5C(C)(C)[C@H](Oc6ccc(C#N)c(Cl)c6)C5(C)C)cn4)CC3)cc1)=N[C@H](Cc1ncco1)c1nnc(C)n1-2 [Compound I-357] | 1500 to 3000 nM | 500 to 1500 nM | > 3000 nM | > 3000 nM |  |  |  | 
Cc1sc2c(c1C)C(c1ccc(CN3CC(=O)N4C[C@@H](c5ncc(C(=O)N[C@H]6C(C)(C)[C@H](Oc7ccc(C#N)c(Cl)c7)C6(C)C)cn5)C[C@H]4C3=O)cc1)=N[C@@H](Cc1ncco1)c1nnc(C)n1-2 [Compound I-358] | 500 to 1500 nM | < 500 nM | > 3000 nM | < 500 nM |  |  |  | 
Cc1sc2c(c1C)C(c1ccc([C@H]3CCCCN3C(=O)[C@H]3CCCN(c4ncc(C(=O)N[C@H]5C(C)(C)[C@@H](Oc6ccc(C#N)c(Cl)c6)C5(C)C)cn4)C3)cc1)=N[C@@H](Cc1ncco1)c1nnc(C)n1-2 [Compound I-359] | > 3000 nM | < 500 nM | > 3000 nM | < 500 nM |  |  |  | 
Cc1sc2c(c1C)C(c1ccc([C@@H]3CCCCN3C(=O)[C@H]3CCCN(c4ncc(C(=O)N[C@H]5C(C)(C)[C@@H](Oc6ccc(C#N)c(Cl)c6)C5(C)C)cn4)C3)cc1)=N[C@@H](Cc1ncco1)c1nnc(C)n1-2 [Compound I-360] | > 3000 nM | < 500 nM | > 3000 nM | < 500 nM |  |  |  | 
Cc1sc2c(c1C)C(c1ccc(CN(C)C(=O)NCc3ncc(C(=O)N[C@H]4C(C)(C)[C@H](Oc5ccc(C#N)c(Cl)c5)C4(C)C)cn3)cc1)=N[C@@H](Cc1ncco1)c1nnc(C)n1-2 [Compound I-361] | 1500 to 3000 nM | > 3000 nM | > 3000 nM | 1500 to 3000 nM |  |  |  | 
Cc1sc2c(c1C)C(c1ccc(CCCN(C)C(=O)c3ncc(C(=O)N[C@H]4C(C)(C)[C@H](Oc5ccc(C#N)c(Cl)c5)C4(C)C)cn3)cc1)=N[C@@H](Cc1ncco1)c1nnc(C)n1-2 [Compound I-362] | 500 to 1500 nM | < 500 nM | > 3000 nM | < 500 nM |  |  |  | 
Cc1sc2c(c1C)C(c1ccc(CC(=O)N3CCN(c4ncc(C(=O)N[C@H]5C(C)(C)[C@H](Oc6ccc(C#N)c(Cl)c6)C5(C)C)cn4)CC3)cc1)=N[C@@H](Cc1ncco1)c1nnc(C)n1-2 [Compound I-363] | 500 to 1500 nM | < 500 nM | 500 to 1500 nM | < 500 nM |  |  |  | 
Cc1sc2c(c1C)C(c1ccc(C(=O)N3CCC[C@@H](C(=O)c4ncc(C(=O)N[C@H]5C(C)(C)[C@H](Oc6ccc(C#N)c(Cl)c6)C5(C)C)cn4)C3)cc1)=N[C@H](Cc1ncco1)c1nnc(C)n1-2 [Compound I-364] | > 3000 nM | < 500 nM | > 3000 nM | > 3000 nM |  |  |  | 
Cc1sc2c(c1C)C(c1ccc(CCCC3CC4(C3)CN(c3ncc(C(=O)N[C@H]5C(C)(C)[C@H](Oc6ccc(C#N)c(Cl)c6)C5(C)C)cn3)C4)cc1)=N[C@@H](C)c1nnc(C)n1-2 [Compound I-365] | < 500 nM | < 500 nM | > 3000 nM | < 500 nM |  |  |  | 
Cc1sc2c(c1C)C(c1ccc(CCC[C@H]3CCCN(c4ncc(C(=O)N[C@H]5C(C)(C)[C@H](Oc6ccc(C#N)c(Cl)c6)C5(C)C)cn4)C3)cc1)=N[C@@H](C)c1nnc(C)n1-2 [Compound I-366] | > 3000 nM | < 500 nM | > 3000 nM | < 500 nM |  |  |  | 
Cc1sc2c(c1C)C(c1ccc(CCO[C@@H]3CCCN(c4ncc(C(=O)N[C@H]5C(C)(C)[C@H](Oc6ccc(C#N)c(Cl)c6)C5(C)C)cn4)C3)cc1)=N[C@@H](C)c1nnc(C)n1-2 [Compound I-367] | 500 to 1500 nM | < 500 nM | > 3000 nM | < 500 nM |  |  |  | 
Cc1sc2c(c1C)C(c1ccc(CC[C@H]3C[C@@]4(CCCN(c5ncc(C(=O)N[C@H]6C(C)(C)[C@H](Oc7ccc(C#N)c(Cl)c7)C6(C)C)cn5)C4)C3)cc1)=N[C@@H](C)c1nnc(C)n1-2 [Compound I-368] | < 500 nM | < 500 nM | > 3000 nM | < 500 nM |  |  |  | 
Cc1sc2c(c1C)C(c1ccc(CC[C@H]3C[C@]4(CCCN(c5ncc(C(=O)N[C@H]6C(C)(C)[C@H](Oc7ccc(C#N)c(Cl)c7)C6(C)C)cn5)C4)C3)cc1)=N[C@@H](C)c1nnc(C)n1-2 [Compound I-369] | > 3000 nM | < 500 nM | > 3000 nM | < 500 nM |  |  |  | 
Cc1sc2c(c1C)C(c1ccc(CC(=O)N3CCC(c4ncc(C(=O)N[C@H]5C(C)(C)[C@H](Oc6ccc(C#N)c(Cl)c6)C5(C)C)cn4)CC3)cc1)=N[C@H](Cc1ncco1)c1nnc(C)n1-2 [Compound I-370] | 500 to 1500 nM | < 500 nM | > 3000 nM | < 500 nM |  |  |  | 
Cc1sc2c(c1C)C(c1ccc(CN(C)C(=O)[C@@H]3CC[C@H](c4ncc(C(=O)N[C@H]5C(C)(C)[C@H](Oc6ccc(C#N)c(Cl)c6)C5(C)C)cn4)C3)cc1)=N[C@@H](Cc1ncco1)c1nnc(C)n1-2 [Compound I-371] | 500 to 1500 nM | < 500 nM | > 3000 nM | < 500 nM |  |  |  | 
Cc1sc2c(c1C)C(c1ccc(CN(C)C(=O)[C@@H]3CC[C@@H](c4ncc(C(=O)N[C@H]5C(C)(C)[C@H](Oc6ccc(C#N)c(Cl)c6)C5(C)C)cn4)C3)cc1)=N[C@@H](Cc1ncco1)c1nnc(C)n1-2 [Compound I-372] | 500 to 1500 nM | < 500 nM | > 3000 nM | < 500 nM |  |  |  | 
Cc1sc2c(c1C)C(c1ccc(N(C)CC(=O)NCc3ncc(C(=O)N[C@H]4C(C)(C)[C@H](Oc5ccc(C#N)c(Cl)c5)C4(C)C)cn3)cc1)=N[C@@H](Cc1ncco1)c1nnc(C)n1-2 [Compound I-373] | > 3000 nM | > 3000 nM | > 3000 nM | > 3000 nM |  |  |  | 
Cc1sc2c(c1C)C(c1ccc(N(C)CC(=O)NCc3ncc(C(=O)N[C@H]4C(C)(C)[C@H](Oc5ccc(C#N)c(Cl)c5)C4(C)C)cn3)cc1)=N[C@H](Cc1ncco1)c1nnc(C)n1-2 [Compound I-374] | 500 to 1500 nM | > 3000 nM | > 3000 nM | < 500 nM |  |  |  | 
Cc1sc2c(c1C)C(c1ccc(CCCOC3CCN(c4ncc(C(=O)N[C@H]5C(C)(C)[C@H](Oc6ccc(C#N)c(Cl)c6)C5(C)C)cn4)CC3)cc1)=C[C@H](Cc1ccncn1)c1nnc(C)n1-2 [Compound I-375] | < 500 nM | < 500 nM | < 500 nM | < 500 nM |  |  |  | 
Cc1sc2c(c1C)C(c1ccc(CCCOC3CCN(c4ncc(C(=O)N[C@H]5C(C)(C)[C@H](Oc6ccc(C#N)c(Cl)c6)C5(C)C)cn4)CC3)cc1)=C[C@H](Cc1ccncn1)c1nnc(C)n1-2 [Compound I-376] |  |  |  |  | < 500 nM | < 500 nM | < 500 nM | < 500 nM
